Broadly, the inhibition is the relative decrease from the control value, in per cent.

Data on 46 compounds can be found in PubChem BioAssay AID2005 (Sanford-Burnham Center for Chemical Genomics, 2009).

Molecules are shown by their SMILES. Calls of active or inactive are those of the source.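 How the source made its calls: active means plate Z score at or below -3, or inhibition of at least 30% at 20 µM; inactive means the rest.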

The assay is described as follows: EGFP reporter destabilization counter-screen – F442A EGFP cells, fluorescence, counter-screen for p/CIP destabilizer project, dose response (AID 2005).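 Further: cells express EGFP alone from a CMV promoter as a counter screen for p/CIP-EGFP.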 The settings on record: F442A EGFP cells, EGFP fluorescence, 16 h, stronger effect = higher value. (A counterscreen serves to expose hits that act by an unwanted route or on another target.)

With `CCOc1ccccc1OCc1nn2c(-c3ccc(C)cc3)nnc2s1`, the inhibition is -2% (EGFP decrease, at 10 µM) and -2.8% (inactive) (at 20 µM).
Take `CC(=O)Nc1ccc2c(c1)nc(CCNC(=O)c1ccco1)n2C`: the inhibition by setting is: (EGFP decrease, at 10 µM) 1.2%; (at 20 µM) 13% (inactive).
The matching figures for `CC(=O)c1ccc2c(c1)OCO2`: 5.1% and 25.1% (inactive).
Consider `Nc1cnn(C2OC(CO)C(O)C2O)c(=O)n1` (configuration not stated), for which the inhibition is, setting by setting: (EGFP decrease, at 10 µM) 18.6%; (at 20 µM) 22.1% (inactive).
Consider `COc1ccc(C(NC(=O)CC(C)C)c2c(O)ccc3ccccc23)cc1` (configuration not stated), for which the inhibition runs as follows: (EGFP decrease, at 10 µM) 18.1%; (at 20 µM) 5.2% (inactive).
On to `Cc1nc(-c2ccc(C(=O)Nc3cccc(F)c3)cc2)cs1`, for which the inhibition was 30.7% (EGFP decrease, at 10 µM) and 32.8% (at 20 µM).
On to `Cc1ccc(NC(=S)Nc2cccc3cnccc23)cc1`, for which the inhibition is 2.1% (EGFP decrease, at 10 µM) and 26.8% (inactive) (at 20 µM).
`N/C(=N\OC(=O)c1ccc(Cl)cc1Cl)c1ccccc1`: the inhibition reads like this: (EGFP decrease, at 10 µM) 10.4%; (at 20 µM) 1.3% (inactive).
As for `CC1CCCCC1NC(=O)CN1C(=O)c2ccccc2S1(=O)=O` (configuration not stated), the inhibition is, setting by setting: (EGFP decrease, at 10 µM) -11.2%; (at 20 µM) 13.6% (inactive).
With `Cc1noc(C)c1COC(=O)CNC(=O)c1cccc(F)c1`, the inhibition was 4% (EGFP decrease, at 10 µM) and -7.3% (inactive) (at 20 µM).
On the same counts, the results for `Cc1cccc2cc(CN(Cc3ccc(F)cc3)Cc3nnnn3C3CCCC3)c(=O)[nH]c12` are 13.4% and 6.5% (inactive).
On to `Cc1ccc(S(=O)(=O)CCC(=O)OCC(=O)c2c[nH]c3ccccc23)cc1`, for which the inhibition was 10.1% (EGFP decrease, at 10 µM) and 19.8% (inactive) (at 20 µM).
Turning to `COc1cccc(CNC(=O)C2CCN(c3cnccn3)CC2)c1`, the inhibition is, setting by setting: (EGFP decrease, at 10 µM) -0.8%; (at 20 µM) 8.6% (inactive).
Consider `COc1cc2c(cc1NC(=O)/C=C/c1ccccc1)oc1ccccc12`, for which the inhibition is, setting by setting: (EGFP decrease, at 10 µM) 12.4%; (at 20 µM) -0.8% (inactive).
On to `O=S(=O)(NCC1CCCN(Cc2ccccc2)C1)c1cccc2cccnc12` (configuration not stated), for which the inhibition (EGFP decrease, at 10 µM) came to 21.3% and the inhibition (at 20 µM) is 19.6% (inactive).
As for `CCOc1ccc(CC(=O)Nc2ccc(S(=O)(=O)Nc3cc(C)on3)cc2)cc1OCC`, the inhibition reads like this: (EGFP decrease, at 10 µM) 7.6%; (at 20 µM) 10.1% (inactive).
On to `C[C@H](NC(=O)C1CCC(CNC(=O)[C@@H]2CCCN2C(=O)OC(C)(C)C)CC1)C(=O)O` (some centres not stated), for which the inhibition was 26.7% (EGFP decrease, at 10 µM) and 20.8% (inactive) (at 20 µM).
As for `Cc1nc(SCC(=O)Nc2cc(C)on2)c2c(=O)n(C)c(=O)n(C)c2n1`, the inhibition is, setting by setting: (EGFP decrease, at 10 µM) 10%; (at 20 µM) 6.6% (inactive).
With `O=C(c1ccccc1F)N(Cc1cccnc1)Cc1cc2cc3c(cc2[nH]c1=O)OCCO3`, the inhibition runs as follows: (EGFP decrease, at 10 µM) 4.2%; (at 20 µM) -4.2% (inactive).
For `O=C(NCC1CCCO1)C1CCCCN1S(=O)(=O)c1ccc(F)cc1` (configuration not stated), the inhibition is -13.3% (EGFP decrease, at 10 µM) and 9.4% (inactive) (at 20 µM).
On the same counts, the results for `COc1ccc(CCNC(=O)C2CCN(S(=O)(=O)c3cccs3)CC2)cc1OC` are 34.9% and 25.1% (inactive).
Consider `CC(OC(=O)C1CC1)C(=O)Nc1ccc([N+](=O)[O-])cc1Cl` (configuration not stated), for which the inhibition (EGFP decrease, at 10 µM) was determined as 14.2% and the inhibition (at 20 µM) is 3.9% (inactive).
With `Cc1cc(C)nc(Sc2ccc3nnc(C(F)(F)C(F)(F)C(F)(F)F)n3n2)n1`, the inhibition is, setting by setting: (EGFP decrease, at 10 µM) 40.7%; (at 20 µM) 15.9% (inactive).
With `O=C(NCc1ccc(Cl)cc1)c1ccc(-c2ccccc2C(F)(F)F)o1`, the inhibition was 16.5% (EGFP decrease, at 10 µM) and -4.8% (inactive) (at 20 µM).
In the case of `COc1cc(NC(=O)c2ccccc2[N+](=O)[O-])c(C(=O)O)cc1OC`, the inhibition is 9.2% (EGFP decrease, at 10 µM) and -1.6% (inactive) (at 20 µM).
As for `COC(=O)c1c(NC(=O)c2ccc(C)cc2)sc(Cc2ccccc2)c1C`, the inhibition is 29.9% (EGFP decrease, at 10 µM) and -2.4% (inactive) (at 20 µM).
For `O=C1C2C3C=CC(C2C(=O)N1c1cccc(O)c1)C1C2C(=O)N(c4cccc(O)c4)C(=O)C2C31` (configuration not stated), the inhibition is -3% (EGFP decrease, at 10 µM) and 12.3% (inactive) (at 20 µM).
Turning to `CCC1=[N+]([O-])C(C)(/C(C)=N\O)N(O)C1(C)C` (configuration not stated), the inhibition is -2.6% (EGFP decrease, at 10 µM) and -11% (inactive) (at 20 µM).
As for `CCOc1ccc(-c2nc(-c3ccccc3)no2)cc1OCC`, the inhibition is, setting by setting: (EGFP decrease, at 10 µM) -19.3%; (at 20 µM) 1.4% (inactive).
With `C=CCN1C(=O)/C(=C2/Sc3ccccc3N2C)SC1=Nc1ccccc1C`, the inhibition is, setting by setting: (EGFP decrease, at 10 µM) 1.3%; (at 20 µM) 8.6% (inactive).
The matching figures for `Cc1cc(C)n(C(=O)CNc2ccccc2Cl)n1`: 9% and 23.3% (inactive).
In the case of `O=C(CNC(=O)c1ccco1)NCC(=O)OCc1ccc(Cl)cc1Cl`, the inhibition (EGFP decrease, at 10 µM) is -15.3% and the inhibition (at 20 µM) was 6% (inactive).
For `O=C(c1ccco1)N1CCN(C(=O)c2ccccc2[N+](=O)[O-])CC1`, the inhibition by setting is: (EGFP decrease, at 10 µM) 10.5%; (at 20 µM) 11.1% (inactive).
For the compound `O=C(Nc1cccc(-c2csc(Nc3ccc(Cl)cc3)n2)c1)c1cc([N+](=O)[O-])cc(C(F)(F)F)c1`, the inhibition is 32.2% (EGFP decrease, at 10 µM) and 21.2% (inactive) (at 20 µM).
Consider `Cc1ccccc1CN1CCC(CNC(=O)Nc2ccc(F)cc2F)CC1`, for which the inhibition was 25.1% (EGFP decrease, at 10 µM) and 20.2% (inactive) (at 20 µM).
`CCOC(=O)C(C)On1c(-c2ccccc2)nc2ccc([N+](=O)[O-])cc21` (configuration not stated): the inhibition runs as follows: (EGFP decrease, at 10 µM) 5.1%; (at 20 µM) 25% (inactive).
With `Cc1cc(C)n(-c2nc3c(c(=O)[nH]c(=O)n3C)n2CC(O)COc2ccccc2)n1` (configuration not stated), the inhibition was -7.9% (EGFP decrease, at 10 µM) and 7.8% (inactive) (at 20 µM).
For `CCOc1ccccc1N1CCN(C(=O)c2cc(-c3cc(OC)ccc3OC)nc3ccccc23)CC1`, the inhibition is, setting by setting: (EGFP decrease, at 10 µM) 20.9%; (at 20 µM) 24.9% (inactive).
On the same counts, the results for `CCCC(=O)C1=C(N(C)c2ccccc2)CC(C)(C)CC1=O` are 24.9% and 21.6% (inactive).
On the same counts, the results for `CCC1=C(OC(=O)N(CC)CC)N2C(=O)OC(=NCC(=O)OC)[C@]2(Cc2ccccc2)[C@H]2C1=CC[C@H]1C(=O)N(c3ccccc3)C(=O)[C@H]12` are 8.2% and 2% (inactive).
Turning to `CC(=O)CC(=O)NC(=NC1CCCCC1)Nc1nc(C)cc(C)n1`, the inhibition was 14.7% (EGFP decrease, at 10 µM) and 5.7% (inactive) (at 20 µM).
Consider `Cc1nc2sc(C(c3cccc(F)c3)N3CC(C)OC(C)C3)c(O)n2n1` (configuration not stated), for which the inhibition reads like this: (EGFP decrease, at 10 µM) 6.2%; (at 20 µM) 30%.
As to `Cc1noc(C)c1CSc1nnc(C)c(=O)[nH]1`, the inhibition reads like this: (EGFP decrease, at 10 µM) -9.8%; (at 20 µM) -3.4% (inactive).
The matching figures for `C/C(=N\NC(=O)c1cccs1)c1c(O)cc(C)oc1=O`: 28.7% and 0.8% (inactive).
For the compound `Cc1ccc(C2C(C#N)=C(N)Oc3cc4c(cc32)OCO4)cc1` (configuration not stated), the inhibition is 15.9% (EGFP decrease, at 10 µM) and 18.9% (inactive) (at 20 µM).
Turning to `COC(=O)CSc1[nH]c(=O)cc(C)c1C#N`, the inhibition by setting is: (EGFP decrease, at 10 µM) 26.6%; (at 20 µM) 49.5%.
